The structures appear in SMILES notation.

Consider one compound from patent publication US20240115647A1, “COMPOSITION COMPRISING FLAVANOL MONOMERS AND E-VINIFERIN” (ACTIV'INSIDE, priority 2020, published 2024).

This test concerns tyrosinase. Briefly: tyrosinase activity, colorimetric reaction with L-DOPA substrate (absorbance 475 nm). Format: biochemical. The protocol: The aim of this test is to model the activity of an enzyme, tyrosinase (the enzyme responsible for melanin formation) using an experimental design and to determine the influence of flavanol monomers and ε-viniferin on enzymatic activity with respect to a specific substrate (L-DOPA). Tyrosinase activity was measured in vitro using a colorimetric reaction. Under the action of tyrosinase, L-DOPA is oxidized and converted into dopaquinone. The formation of dopaquinone can thus be monitored by spectrometry at 475 nm.
In a 96-well plate, the following amounts were deposited in each well: 80 μl phosphate buffer (50 mM), 40 μl of sample to be tested or buffer, 40 μl of tyrosinase at 125 U/ml. At the last moment, 40 μl of L-DOPA (2.5 mM) was added to initiate the reaction and then absorbance at 475 nm was monitored for 25 min.
For each well, the absorbance values over time (Ax) are normalized relative to the first absorbance measurement (AT0) according to the following formula: Normalized absorbance (An)=Ax−AT0. The normalized absorbances are then corrected (for each time) according to the following formula: Corrected normalized absorbance (Anc)=An−ACLT, where ACLT is the value of the normalized absorbance of the reagents in the presence of the sample (buffer+tyrosinase+sample). […]
To this end, tyrosinase activity was monitored and measured in vitro using the colorimetric reaction described above. […]

For the compound `Oc1ccc(/C=C/c2cc(O)cc3c2[C@@H](c2cc(O)cc(O)c2)[C@H](c2ccc(O)cc2)O3)cc1` [ε-viniferin], the “effect on tyrosinase activity with respect to the L-DOPA substrate” value (experimental design: flavanol monomers 1-50 μM, ε-viniferin 0.0050-0.05 μM, response at 7 min) was “no significant effect”. The “Estimated Coefficient (coded factors) of the model of corrected normalized absorbance” value (linear-quadratic model, central composite design, negative = reduces tyrosinase activity) was −0.0045.
